In series [1] the test system is Plasmodium falciparum. Kind of series: Antimalarial activity against ring stage artemisinin-sensitive Plasmodium falciparum F32-TEM assessed as time taken for recrudescence by measuring parasitemia at 7 uM after 48 hrs. The format is functional.
In series [2] the test system is Plasmodium falciparum. Nature of the series: Antimalarial activity against ring stage artemisinin-resistant Plasmodium falciparum F32-ART5 assessed as time taken for recrudescence by measuring parasitemia at 20 uM after 48 hrs. The format is functional.
The test system of series [3] is Plasmodium falciparum. Nature of the series: Antimalarial activity against Plasmodium falciparum assessed as difference of time taken for recrudescence Plasmodium falciparum […] between ring stage artemisinin-sensitive Plasmodium falciparum F32-TEM measured at 7 uM after 48 hrs. It counts as functional.
The test system of series [4] is Plasmodium falciparum. Nature of the series: Antimalarial activity against artemisinin-sensitive Plasmodium falciparum F32-TEM by SYBR green dye based fluorescence assay. It counts as functional, organism-based.
In series [5] the test system is Plasmodium falciparum. Kind of series: Antimalarial activity against ring stage artemisinin-resistant Plasmodium falciparum F32-ART5 assessed as time taken for recrudescence by measuring parasitemia at 7 uM after 48 hrs. It counts as functional.
The nature of series [6]: Selective index, ratio of CC50 for African green monkey Vero cells to IC50 for plasmodium falciparum.
The nature of series [7]: Cytotoxicity against African green monkey Vero cells assessed as inhibition of cell proliferation. The format is cell-based. The following applies: chlorocebus sabaeus.
For series [8], the system named is Plasmodium falciparum. Nature of the series: Antimalarial activity against Plasmodium falciparum assessed as difference of time taken for recrudescence Plasmodium falciparum […] between ring stage artemisinin-sensitive Plasmodium falciparum F32-TEM measured at 20 uM after 48 hrs. It counts as functional.
Series [9] deals with Plasmodium falciparum. Nature of the series: Antimalarial activity against ring stage artemisinin-sensitive Plasmodium falciparum F32-TEM assessed as time taken for recrudescence by measuring parasitemia at 20 uM after 48 hrs. It counts as functional.
Series [10] relates to Plasmodium falciparum. Kind of series: Antimalarial activity against Plasmodium falciparum assessed as difference of time taken for recrudescence Plasmodium falciparum F32-ART5 between ring stage artemisinin-sensitive Plasmodium falciparum F32-TEM measured at 1 uM after 48 hrs.
The test system of series [11] is Plasmodium falciparum. Kind of series: Antimalarial activity against ring stage artemisinin-sensitive Plasmodium falciparum F32-TEM assessed as time taken for recrudescence by measuring parasitemia at 1 uM after 48 hrs. The format is functional.
For series [12], the system named is Plasmodium falciparum. Kind of series: Antimalarial activity against Plasmodium falciparum assessed as difference of time taken for recrudescence Plasmodium falciparum […] between ring stage artemisinin-sensitive Plasmodium falciparum F32-TEM measured at 18 uM after 48 hrs. It counts as functional.
In series [13] the test system is Plasmodium falciparum. Kind of series: Antimalarial activity against ring stage artemisinin-resistant Plasmodium falciparum F32-ART5 assessed as time taken for recrudescence by measuring parasitemia at 18 uM after 48 hrs. The format is functional.
The test system of series [14] is Plasmodium falciparum. Nature of the series: Antimalarial activity against ring stage artemisinin-sensitive Plasmodium falciparum F32-TEM assessed as time taken for recrudescence by measuring parasitemia at 18 uM after 48 hrs. It counts as functional.
Series [15] has as its system Plasmodium falciparum. Kind of series: Antimalarial activity against ring stage artemisinin-resistant Plasmodium falciparum F32-ART5 assessed as time taken for recrudescence by measuring parasitemia pretreated with dihydroartemisinin for 6 hrs followed by treated at 7 uM for 48 hrs by Quiescent-stage Survival Assay. The format is functional.
The subject of series [16] is Plasmodium falciparum. Kind of series: Antimalarial activity against ring stage artemisinin-resistant Plasmodium falciparum F32-ART5 assessed as time taken for recrudescence by measuring parasitemia at 1 uM after 48 hrs. The format is functional.
Series [17] has as its system Plasmodium falciparum. Nature of the series: Antimalarial activity against ring stage artemisinin-resistant Plasmodium falciparum F32-ART5 assessed as time taken for recrudescence by measuring parasitemia pretreated with dihydroartemisinin for 6 hrs followed by treated at 200 nM for 48 hrs by Quiescent-stage Survival Assay. It counts as functional.

By IC50 is commonly meant the concentration at which inhibition is half-maximal. A word on the CC50: it is the concentration giving 50% cytotoxicity.

Molecules are shown by their SMILES.

For the compound `Cc1nc(C)c(-c2ccc(Oc3ccc(OC(F)(F)F)cc3)cc2)c(OC(=O)CCCCCCC(=O)Oc2cc(Cl)ccc2Oc2ccc(Cl)cc2Cl)c1Cl`, the Time is 4 days in the series with Plasmodium falciparum [1]; 2 days in the series on Plasmodium falciparum [2]; 0.6 days in the series on Plasmodium falciparum [3]; 3 days in the series on Plasmodium falciparum [5]; 1 days in the series on Plasmodium falciparum [8]; 3 days in the series on Plasmodium falciparum [9]. For the same compound, the IC50 in the series with Plasmodium falciparum [4] is 0.169 µM. The “Ratio CC50/IC50” value in series [6] is on record as >710. For the same compound, the CC50 in series [7] is > 120 µM.

As for `Cl.O=C(CCC(=O)O[C@H](c1cc(C(F)(F)F)nc2c(C(F)(F)F)cccc12)[C@@H]1CCCCN1)OC1=C([C@H]2CC[C@H](c3ccc(Cl)cc3)CC2)C(=O)c2ccccc2C1=O`, the Time turned out to be 0 days with Plasmodium falciparum [10] and 14 days in the series with Plasmodium falciparum [11]. The compound also showed a half-maximal inhibitory concentration (IC50) in the series with Plasmodium falciparum [4] of 0.0006 µM. Also, the “Ratio CC50/IC50” value in series [6] came out at 6660. In addition, in [7], the CC50 stood at 4 µM.

With `C[C@@H]1CC[C@H]2[C@@H](C)C(=O)O[C@@H]3O[C@@]4(C)CC[C@@H]1[C@]32OO4` [ARTEMISININ], the Time in the series on Plasmodium falciparum [12] was determined as 12.5 days; in the series on Plasmodium falciparum [13], 9 days; in the series with Plasmodium falciparum [14], 22 days. Also, the IC50 in the series on Plasmodium falciparum [4] stood at 0.018 µM.

Consider `Cc1[nH]c(C)c(-c2ccc(Oc3ccc(OC(F)(F)F)cc3)cc2)c(=O)c1Cl`, for which the figures for the Time with Plasmodium falciparum [1], in the series with Plasmodium falciparum [3] and with Plasmodium falciparum [5] were 8 days, 3 days and 2 days, respectively. Besides, in the series on Plasmodium falciparum [4], half-maximal inhibition (IC50) was put at 0.042 µM. Also, in series [6], the “Ratio CC50/IC50” value came out at 190. Also, the cytotoxic concentration (CC50) in series [7] was 8 µM.

Compound `O[C@@H](c1cc(C(F)(F)F)nc2c(C(F)(F)F)cccc12)[C@H]1CCCCN1` [(S,R)-MEFLOQUINE] yielded an IC50 with Plasmodium falciparum [4] of 0.087 µM. The “Ratio CC50/IC50” value in series [6] was determined as 241. Besides, the cytotoxic concentration (CC50) in series [7] came out at 21 µM. Moreover, the Time with Plasmodium falciparum [11] is >30 days.

As for `O=C1C(O)=C([C@H]2CC[C@H](c3ccc(Cl)cc3)CC2)C(=O)c2ccccc21` [ATOVAQUONE], the Time in the series on Plasmodium falciparum [1] was 23 days; in the series on Plasmodium falciparum [3] it was “<=1 day”; in the series with Plasmodium falciparum [10] it was 3 days; with Plasmodium falciparum [15], 18 days; in the series with Plasmodium falciparum [5] it was 21 days; in the series with Plasmodium falciparum [16], 11 days. Further, the Time in the series on Plasmodium falciparum [11] was found to be 14 days. This compound displayed an IC50 in the series on Plasmodium falciparum [4] of 0.0021 µM. In series [6], the “Ratio CC50/IC50” value turned out to be 257. Further, the 50% cytotoxic concentration (CC50) in series [7] amounted to 0.5 µM.

For `CCN(CC)CCCC(C)Nc1ccnc2cc(Cl)ccc12` (stereo unspecified) [CHLOROQUINE], the Time in the series with Plasmodium falciparum [17] amounted to 8 days.

In the case of `O=C(CCCCCCC(=O)Oc1cc(Cl)ccc1Oc1ccc(Cl)cc1Cl)OC1=C([C@H]2CC[C@H](c3ccc(Cl)cc3)CC2)C(=O)c2ccccc2C1=O`, the Time turned out to be 12 days in the series with Plasmodium falciparum [1], 4 days with Plasmodium falciparum [3], 10 days in the series with Plasmodium falciparum [15] and 9 days in the series with Plasmodium falciparum [5]. The IC50 with Plasmodium falciparum [4] is 0.0006 µM. For the same compound, the “Ratio CC50/IC50” value in [6] amounted to 10000. Further, the 50% cytotoxic concentration (CC50) in [7] stood at 6 µM.

On to `Cl.O=C(CCCC(=O)O[C@H](c1cc(C(F)(F)F)nc2c(C(F)(F)F)cccc12)[C@@H]1CCCCN1)OC1=C([C@H]2CC[C@H](c3ccc(Cl)cc3)CC2)C(=O)c2ccccc2C1=O`, for which the Time was 0 days in the series on Plasmodium falciparum [10] and 14 days in the series on Plasmodium falciparum [11]. For the same compound, in the series on Plasmodium falciparum [4], it took 0.0011 µM to reach half-maximal inhibition (IC50). Besides, in [6], the “Ratio CC50/IC50” value was determined as 4545. In addition, the cytotoxic concentration (CC50) in series [7] came out at 5 µM.

Turning to `Oc1cc(Cl)ccc1Oc1ccc(Cl)cc1Cl` [TRICLOSAN], the Time in the series on Plasmodium falciparum [1] amounted to 6 days; in the series with Plasmodium falciparum [15], 7 days; in the series on Plasmodium falciparum [5] it was 5 days. The “Ratio CC50/IC50” value in series [6] stood at 5. Further, in [7], the CC50 was found to be 25 µM.
